{
  "source": "patent US12234476B2",
  "about": "“VCN enhancer compositions and methods of using the same” (bluebird bio, Inc., priority 2016, dated 2025)",
  "key": {"hCD34+ cells [1]": {"test_system": "hCD34+ cells", "assay": "Colony formation in MethoCult / methylcellulose", "assay_type": "cell-based, human", "method": "(§1) Washed cells were resuspended in 200 μL SCGM and then transferred to 3 mL aliquots of cytokine-supplemented methylcellulose (for example, Methocult M4434 Classic). 1.1 mL was then transferred to parallel 35-mm tissue culture dishes using a blunt 16-gauge needle. Dishes were maintained in a standard humidified tissue culture incubator for 12-16 days and colonies were scored for size, morphology, and cellular composition. Individual colonies were then picked for subsequent VCN analysis or the contents of an entire 35-mm dish were pooled and then subject to VCN analysis.\nColonies in MethoCult were enumerated using STEMvision (Stemcell Technologies). […] FIG. 3."}, "[2]": {"test_system": "long-term HSCs (CD34+CD38-CD45RA-CD90+CD49f+)", "assay": "GFP lentiviral vector transduction of phenotypic long-term HSCs (flow cytometry)", "assay_type": "cell-based, human", "settings": "GFP LVV; 4 days of culture", "source_text": "Human CD34^+ cells were transduced with a GFP lentiviral vector (LVV) and subsequently cultured in cytokine-containing media. After 4 days of culture, these cells were stained for cell surface markers that phenotypically characterize long-term HSCs (CD34^+CD38^−CD45RA^−CD90^+CD49f^+). […] The proportion of transduced phenotypic long-term HSCs increased to >90% in cells transduced in the presence of F108, with or without the supplementation of PGE2. FIG. 22."}, "[3]": {"test_system": "hCD34+ cells transplanted into NSG mice", "assay": "In vivo VCN of engrafted human cells in bone marrow of NSG mice", "source_text": "HSCs transduced with lentivirus were transplanted into NOD/SCID Gamma (NSG) mice to assess the effect of candidate compounds on viral transduction of human long-term hematopoietic stem cells. Transduced cells were washed and resuspended in phosphate-buffered saline (PBS) and transplanted into the tail vein of sub-myeloablated adult NSG mice, with minimal residual toxicity. Mice were housed in a pathogen-free environment per standard IACUC animal care guidelines. At 4 months post-transplant bone marrow (BM) was harvested from both femurs and analyzed for both VCN and engraftment of human cells by staining with an anti-hCD45 antibody (BD #561864) followed by flow cytometry analysis.\nMeta-analysis of NSG transplants with PGE2-treated lentiviral transduced hCD34+ cells from healthy donors (n=3). Human CD34^+ cells were transplanted into sub-myeloablated female NSG mice and bone marrow (BM) was analyzed at 4 months post-transplant. BM was harvested from both femurs of NSG mice and half of the sample was stained with anti-hCD45 for approximately 30 minutes at 4° C. Following incubation, samples were washed and analyzed for human CD45^+ cells via flow analysis using an anti-hCD45 antibody (BD #561864). […] FIG. 1A. The mean VCN of engrafted PGE2-treated hCD34^+ cells was about two-fold higher than the mean VCN of control cells at 4 months post-transplant. FIG. 1B.\nA low-transducing cell lot of hCD34^+ cells (VCN of 0.3 under standard conditions) was transduced with lentiviral vector in the presence of protamine sulfate, PGE2, F108 (200 μg/mL or 1000 μg/mL), or the combination of PGE2 and F108 for 24 hours. Following transduction, cells were washed and immediately injected into busulfan-treated NSG mice.\nTwo months post-transplant, 5 mice/group were sacrificed and BM was harvested and analyzed to evaluate in vivo VCN. The in vivo VCN of engrafted cells transduced in the presence of protamine sulfate was very similar to the graft VCN (˜0.3). in vivo VCN increased approximately 2-fold in PGE2-treated cells. […] FIG. 10C."}, "[4]": {"test_system": "hCD34+ cells transplanted into NSG mice", "assay": "Engraftment and differentiation of transduced hCD34+ cells in NSG mice (flow cytometry)", "assay_type": "in vivo", "source_text": "HSCs transduced with lentivirus were transplanted into NOD/SCID Gamma (NSG) mice to assess the effect of candidate compounds on viral transduction of human long-term hematopoietic stem cells. […] Mice were housed in a pathogen-free environment per standard IACUC animal care guidelines.\nMeta-analysis of NSG transplants with PGE2-treated lentiviral transduced hCD34+ cells from healthy donors (n=3). Human CD34^+ cells were transplanted into sub-myeloablated female NSG mice and bone marrow (BM) was analyzed at 4 months post-transplant. BM was harvested from both femurs of NSG mice and half of the sample was stained with anti-hCD45 for approximately 30 minutes at 4° C. […] FIG. 1A. […] FIG. 1B.\nThe BM was analyzed for engraftment of hCD34^+ cells. Cells were stained with an antibody cocktail recognizing various cell surface markers (CD45, CD33, CD3, CD19) and analyzed via flow cytometry."}, "hCD34+ cells [5]": {"test_system": "hCD34+ cells", "assay": "Vector copy number (VCN) analysis by qPCR of lentivirus-transduced hCD34+ cells (pooled or individual MethoCult colonies, liquid culture)", "assay_type": "cell-based, human", "settings": "for VCN with increasing concentrations of PGE2: pooled colonies", "method": "(§2) Washed cells were resuspended in 2 mL Stem Cell Growth Medium (SCGM)+cytokines and transferred to a standard 12-well non-adherent tissue culture plate. Cells were maintained for an additional 6 days in a standard humidified tissue culture incubator (5% CO2) and then subjected to Vector Copy Number (VCN) analysis or single-cell nested PCR to determine transduction efficiency. Both VCN and the single-cell nested PCR assay were performed with qPCR using primers and probes specific to both the vector and an endogenous control gene. VCN was determined by dividing the amount of vector signal by the amount of the endogenous control gene. For the single-cell nested PCR assay, wells that contained a cell positive for the endogenous control gene and wells that contained a marked cell positive for both the vector and the endogenous control gene were enumerated, and the proportion of marked cells, or transduction efficiency, was calculated.\nas §1"}, "Human CD34+ cells": {"test_system": "Human CD34+ cells", "assay": "ALDP expression by intracellular staining and flow cytometry", "assay_type": "cell-based", "settings": "MND-ABCD1 LVV; AMN, ALD patients and healthy donors; day 4 or 5; vs PS", "description": "Human CD34^+ cells from AMN patients (FIG. 26, panels A-D), ALD patients (FIG. 26, panels E-H), and healthy donors (HD; FIG. 26, panels I-L) were transduced with a lentiviral vector (LVV) lacking a WPRE and comprising an MND promoter operably linked to a polynucleotide encoding ABCD1. […] Cultured cells were stained intracellularly for ALDP expression on day 4 or 5 and analyzed by flow cytometry."}, "hCD34+ cells [6]": {"test_system": "hCD34+ cells", "assay": "Transduction efficiency / % LVV+ (single-cell nested PCR or individual colony qPCR)", "assay_type": "cell-based, human", "settings": "for transduction efficiency: low-transducing cell lot, individual colony qPCR (Example 11)", "method": "as §2\nAfter a 7 day liquid culture, cells were collected and single-cell sorted into a 96-well plate. Cells were lysed and subjected to nested PCR to determine presence of LVV in a single cell. Percentage of cells containing both LVV and an endogenous control gene was determined from number of cells containing the endogenous control gene. […] FIG. 5B.\n% LVV+: Single cells were isolated by FACS and deposited in 96-well plates containing lysis buffer. Following lysis, the viral-specific sequence from a lentiviral vector encoding a β-globin variant was amplified by PCR along with a control genomic sequence not present in the vector. The PCR products from each single cell were then analyzed by qPCR for presence of genomic sequence, indicating a successfully captured cell. […] Fraction of vector positive cells was then calculated across the entire set of sampled cells. The % LVV+ of the β0/β0 hCD34+ cells was about 77%. FIG. 18, right panel."}},
  "data": [
    {"compound": "CCCCC[C@H](O)/C=C/[C@H]1[C@H](O)CC(=O)[C@@H]1C/C=C\\CCCC(=O)O", "note": "[PGE2, prostaglandin E2]", "values": [
      {"measurement": "colony formation ability of transduced cells", "setting": "hCD34+ cells [1]; 24 hour transduction, 14 day MethoCult (Example 4)", "result": "did not alter the colony formation ability"},
      {"measurement": "proportion of phenotypic long-term HSCs expressing GFP", "setting": "[2]", "result": 45, "unit": "%"},
      {"measurement": "mean VCN of engrafted cells vs control cells", "setting": "[3]; 4 months post-transplant, healthy donors n=3", "result": "about two-fold"},
      {"measurement": "increase of in vivo VCN over protamine sulfate", "setting": "[3]; four months post-transplant", "result": "approximately 1.6 fold"},
      {"measurement": "increase of in vivo VCN over protamine sulfate", "setting": "[3]; two months post-transplant", "result": "approximately 2 fold"},
      {"measurement": "effect on hCD34+ engraftment", "setting": "[4]; 2 and 4 months post-transplant", "result": "no statistically significant effect"},
      {"measurement": "proportion of myeloid (CD33+) or lymphoid (CD3+ or CD19+) cells", "setting": "[4]; 2 and 4 months post-transplant", "result": "no significant difference"},
      {"measurement": "percentage of hCD45+ cells in mouse BM (engraftment)", "setting": "[4]; 4 months post-transplant, PGE2-treated vs control-treated", "result": "No statistically significant difference"},
      {"measurement": "fold increase in mean VCN compared to protamine sulfate", "setting": "hCD34+ cells [5]; 24 hour transduction, 14 day MethoCult pooled colonies (Example 6)", "result": 2, "unit": "fold"},
      {"measurement": "VCN at D7 in cytokine cultured cells and D14 pooled methylcellulose colonies", "setting": "hCD34+ cells [5]; MND-ABCD1 LVV, AMN, ALD patients and healthy donors", "result": "increased VCN"},
      {"measurement": "VCN with increasing concentrations of PGE2", "setting": "hCD34+ cells [5]; in the presence of F108, PGE2 increased at least 10-fold", "result": "does not result in a dose-dependent increase in VCN"},
      {"measurement": "VCN with increasing concentrations of PGE2", "setting": "hCD34+ cells [5]; in the presence of protamine sulfate", "result": "dose-dependent increase in VCN"},
      {"measurement": "increase of mean VCN of graft vs protamine sulfate", "setting": "hCD34+ cells [5]; low-transducing cell lot, 24 hours (Example 11)", "result": "approximately 3 fold"},
      {"measurement": "number of cells expressing ALDP", "setting": "Human CD34+ cells", "result": "increased the number of cells expressing ALDP"},
      {"measurement": "transduction efficiency", "setting": "hCD34+ cells [6]", "result": "~40", "unit": "%"}
    ]},
    {"compound": "protamine sulfate", "values": [
      {"measurement": "ability of hematopoietic progenitors to form colonies (erythroid or myeloid)", "setting": "hCD34+ cells [1]; 8 μg/mL PS, 10 or 1000 μg/mL F108, 1000 μg/mL F108 with 8 μg/mL PS", "result": "Neither PS nor F108 significantly affected"},
      {"measurement": "colony formation", "setting": "hCD34+ cells [1]; IL2Rγ LVV (Example 26)", "result": "did not significantly impact colony formation"},
      {"measurement": "proportion of phenotypic long-term HSCs expressing GFP", "setting": "[2]", "result": "approximately 30%"},
      {"measurement": "in vivo VCN of engrafted cells", "setting": "[3]; four months post-transplant", "result": "~0.3"},
      {"measurement": "in vivo VCN of engrafted cells", "setting": "[3]; two months post-transplant", "result": "~0.3"},
      {"measurement": "VCN of pooled colonies", "setting": "hCD34+ cells [5]; EF1α-IL2Rγ LVV, MOI 10 or 30", "result": "below 1.5"},
      {"measurement": "VCN of pooled colonies", "setting": "hCD34+ cells [5]; EF1α-TPP1 or MND-TPP1 LVV, MOI 5 or 15", "result": "below 1.5"},
      {"measurement": "distribution of individual colony VCNs", "setting": "hCD34+ cells [5]; F108 and PGE2 at MOI 10, protamine sulfate at MOI 25", "result": "0-6"},
      {"measurement": "% LVV+ colonies", "setting": "hCD34+ cells [6]; IL2Rγ LVV from PrCL1 or PrCL2", "result": "20-30%"},
      {"measurement": "% LVV+ colonies", "setting": "hCD34+ cells [6]; IL2Rγ LVV, transiently prepared", "result": "50-60%"},
      {"measurement": "transduction efficiency", "setting": "hCD34+ cells [6]", "result": "~20", "unit": "%"}
    ]}
  ]
}
